Values of other authors as cited in patent US20230383363A1, “METHOD FOR DETERMINING SENSITIVITY TO PARP INHIBITOR OR DNA DAMAGING AGENT USING NON-FUNCTIONAL TRANSCRIPTOME” (GC GENOME CORPORATION, priority 2020, published 2023).

Details: patients selected by FoundationFocusCDxBRCA (BRCA1 and BRCA2 mutations)

In the case of `CNCc1ccc(-c2[nH]c3cc(F)cc4c3c2CCNC4=O)cc1` [rucaparib], the “overall response rate (ORR)” value is listed as 53.8%.
